In assay [1] the test system is chloride sensor (ECFP - peptide linker - EYFP with mutations I152L, V163S, H148Q; SEQ ID No. 5). As to the kind of experiment: Calibration of chloride sensor emission ratio R=F527/F485 in patch-pipette dialysed cells. In kind it is cell-based. The following applies: in HEK293 and BOSC23 cells; Rmax = 2,39, Rmin = 0,49. As to the method:
The chloride sensor was expressed in human kidney derived cell lines (HEK293 and BOSC23) using a calcium phosphate transfection procedure.
Measurements of fluorescence are likely to reflect the average [Cl-] in the intracellular compartment.
The ratio (R) of fluorescence emission of the EYFP acceptor to that of the ECFP donor is R=F527/F485.
To calibrate the fluorescence of chloride sensor within these cells, R is measured while using a patch pipette to manipulate the cytoplasmic concentration of anions. A nominally Cl- free solution containing 150 mM gluconate is used to determine the maximal emission ratio for the chloride sensor (Rmax), whereas a solution containing a saturating concentration (150mM) of Cl- defines the minimal emission ratio (Rmin). The relationship between R and intermediates values of [Cl-] is then determined. This relationship could be described as : [Cl-]= K'd (Rmax - R)/(R - Rmin), [formula] with Rmax = 2,39, Rmin = 0,49 and K'd = 87mM. this calibration curve can then be used to convert R values measured in intracellular compartment of living cells into [Cl-].

Assay [2] deals with YFP double mutant YFP-H148Q/V163S (Aequorea victoria, UniProt P42212, H148Q/H231L/S65G/S72A/T203Y/V163S/V68L). Particulars: physiological pH (7,35); cited from earlier work.
The target of assay [3] is YFP double mutant YFP-H148Q/I152L (Aequorea victoria, UniProt P42212, H148Q/H231L/I152L/S65G/S72A/T203Y/V68L). Particulars: cited from earlier work.

With chloride [Cl^-], the Kd is 87 mM in assay [1], 39 mM in assay [2] and 85 mM in assay [3]. For the same substance, the “binding kinetics (τ)” value is given as 1900 ms in assay [2] and 52 ms in assay [3].

Source of the values: patent EP1514922A1 (priority 2003, dated 2005).
